Measured values from PubChem BioAssay AID1259407 (Chemical Carcinogenesis Research Information System (CCRIS), 2018).
Calls of active or inactive are those of the source. How the calls were made is not given here.

Tested on: CCRIS mutagenicity, Ames/micronucleus/aberration tests
Experiment: CCRIS mutagenicity studies

CC=O
mutagenic call (End Point: In vitro chromosomal aberrations, Test System: Chinese hamster lung (CHL/IU) cells, Metabolic Activation: None): active; positive (structural changes)
mutagenic call (End Point: In vitro chromosomal aberrations, Test System: Chinese hamster lung (CHL/IU) cells, Metabolic Activation: Rat, Liver, S9, Phenobarbital and 5,6-benzoflavone): active; positive (structural changes)
mutagenic call (End Point: In vivo micronucleus, Test System: Peripheral blood reticulocytes, Species: Mouse, Strain/Sex: Aldh2+/+ aldehyde dehydrogenase-2 sufficient /male, Route: Inhalation): inactive; negative
mutagenic call (End Point: In vivo micronucleus, Test System: Peripheral blood reticulocytes, Species: Mouse, Strain/Sex: Aldh2+/+ aldehyde dehydrogenase-2 sufficient /male, Route: Oral): inactive; negative
mutagenic call (End Point: In vivo micronucleus, Test System: Peripheral blood reticulocytes, Species: Mouse, Strain/Sex: Aldh2-/- aldehyde dehydrogenase-2 null /male, Route: Inhalation): active; positive
mutagenic call (End Point: In vivo micronucleus, Test System: Peripheral blood reticulocytes, Species: Mouse, Strain/Sex: Aldh2-/- aldehyde dehydrogenase-2 null /male, Route: Oral): active; positive
mutagenic call (Test System: AMES SALMONELLA TYPHIMURIUM, Strain/Indicator: TA98, Metabolic Activation: HAMSTER, LIVER, S-9, AROCLOR 1254, Method: STANDARD PLATE): inactive; negative
mutagenic call (Test System: AMES SALMONELLA TYPHIMURIUM, Strain/Indicator: TA98, Metabolic Activation: NONE, Method: GAS EXPOSURE): inactive; negative
mutagenic call (Test System: AMES SALMONELLA TYPHIMURIUM, Strain/Indicator: TA98, Metabolic Activation: NONE, Method: PREINCUBATION): inactive; negative
mutagenic call (Test System: AMES SALMONELLA TYPHIMURIUM, Strain/Indicator: TA98, Metabolic Activation: NONE, Method: STANDARD PLATE): inactive; negative
mutagenic call (Test System: AMES SALMONELLA TYPHIMURIUM, Strain/Indicator: TA98, Metabolic Activation: RAT LIVER S-9, PHENOBARBITAL AND BETA-NAPHTHOFLAVONE, Method: PREINCUBATION): inactive; negative
mutagenic call (Test System: AMES SALMONELLA TYPHIMURIUM, Strain/Indicator: TA98, Metabolic Activation: RAT, LIVER, S-9, AROCLOR 1254, Method: PREINCUBATION): inactive; negative
mutagenic call (Test System: AMES SALMONELLA TYPHIMURIUM, Strain/Indicator: TA98, Metabolic Activation: RAT, LIVER, S-9, AROCLOR 1254, Method: STANDARD PLATE): inactive; negative
mutagenic call (Test System: AMES SALMONELLA TYPHIMURIUM, Strain/Indicator: TA98, Metabolic Activation: RAT, LIVER, S-9, PHENOBARBITAL AND BETA-NAPHTHOFLAVONE, Method: GAS EXPOSURE): inactive; negative
mutagenic call (Test System: AMES SALMONELLA TYPHIMURIUM, Strain/Indicator: TA100, Metabolic Activation: HAMSTER, LIVER, S-9, AROCLOR 1254, Method: STANDARD PLATE): inactive; negative
mutagenic call (Test System: AMES SALMONELLA TYPHIMURIUM, Strain/Indicator: TA100, Metabolic Activation: MOUSE LIVER S-9, AROCLOR 1254, Method: VAPOR PHASE): inactive; negative
mutagenic call (Test System: AMES SALMONELLA TYPHIMURIUM, Strain/Indicator: TA100, Metabolic Activation: NONE, Method: GAS EXPOSURE): inactive; negative
mutagenic call (Test System: AMES SALMONELLA TYPHIMURIUM, Strain/Indicator: TA100, Metabolic Activation: NONE, Method: PREINCUBATION): inactive; negative
mutagenic call (Test System: AMES SALMONELLA TYPHIMURIUM, Strain/Indicator: TA100, Metabolic Activation: NONE, Method: STANDARD PLATE): inactive; negative
mutagenic call (Test System: AMES SALMONELLA TYPHIMURIUM, Strain/Indicator: TA100, Metabolic Activation: NONE, Method: VAPOR PHASE): inactive; negative
mutagenic call (Test System: AMES SALMONELLA TYPHIMURIUM, Strain/Indicator: TA100, Metabolic Activation: RAT LIVER S-9, AROCLOR 1254, Method: VAPOR PHASE): inactive; negative
mutagenic call (Test System: AMES SALMONELLA TYPHIMURIUM, Strain/Indicator: TA100, Metabolic Activation: RAT LIVER S-9, PHENOBARBITAL AND BETA-NAPHTHOFLAVONE, Method: PREINCUBATION): inactive; negative
mutagenic call (Test System: AMES SALMONELLA TYPHIMURIUM, Strain/Indicator: TA100, Metabolic Activation: RAT, LIVER, S-9, AROCLOR 1254, Method: PREINCUBATION): inactive; negative
mutagenic call (Test System: AMES SALMONELLA TYPHIMURIUM, Strain/Indicator: TA100, Metabolic Activation: RAT, LIVER, S-9, AROCLOR 1254, Method: STANDARD PLATE): inactive; negative
mutagenic call (Test System: AMES SALMONELLA TYPHIMURIUM, Strain/Indicator: TA100, Metabolic Activation: RAT, LIVER, S-9, PHENOBARBITAL AND BETA-NAPHTHOFLAVONE, Method: GAS EXPOSURE): inactive; negative
mutagenic call (Test System: AMES SALMONELLA TYPHIMURIUM, Strain/Indicator: TA102, Metabolic Activation: MOUSE LIVER S-9, AROCLOR 1254, Method: VAPOR PHASE): inactive; negative
mutagenic call (Test System: AMES SALMONELLA TYPHIMURIUM, Strain/Indicator: TA102, Metabolic Activation: NONE, Method: PREINCUBATION): inactive; negative
mutagenic call (Test System: AMES SALMONELLA TYPHIMURIUM, Strain/Indicator: TA102, Metabolic Activation: NONE, Method: VAPOR PHASE): inactive; negative
mutagenic call (Test System: AMES SALMONELLA TYPHIMURIUM, Strain/Indicator: TA102, Metabolic Activation: RAT, LIVER, S-9, AROCLOR 1254, Method: PREINCUBATION): inactive; negative
mutagenic call (Test System: AMES SALMONELLA TYPHIMURIUM, Strain/Indicator: TA104, Metabolic Activation: MOUSE LIVER S-9, AROCLOR 1254, Method: VAPOR PHASE): inactive; negative
mutagenic call (Test System: AMES SALMONELLA TYPHIMURIUM, Strain/Indicator: TA104, Metabolic Activation: NONE, Method: VAPOR PHASE): inactive; negative
mutagenic call (Test System: AMES SALMONELLA TYPHIMURIUM, Strain/Indicator: TA104, Metabolic Activation: RAT LIVER S-9, AROCLOR 1254, Method: VAPOR PHASE): inactive; negative
mutagenic call (Test System: AMES SALMONELLA TYPHIMURIUM, Strain/Indicator: TA1535, Metabolic Activation: HAMSTER, LIVER, S-9, AROCLOR 1254, Method: STANDARD PLATE): inactive; negative
mutagenic call (Test System: AMES SALMONELLA TYPHIMURIUM, Strain/Indicator: TA1535, Metabolic Activation: NONE, Method: GAS EXPOSURE): inactive; negative
mutagenic call (Test System: AMES SALMONELLA TYPHIMURIUM, Strain/Indicator: TA1535, Metabolic Activation: NONE, Method: PREINCUBATION): inactive; negative
mutagenic call (Test System: AMES SALMONELLA TYPHIMURIUM, Strain/Indicator: TA1535, Metabolic Activation: NONE, Method: STANDARD PLATE): inactive; negative
mutagenic call (Test System: AMES SALMONELLA TYPHIMURIUM, Strain/Indicator: TA1535, Metabolic Activation: RAT LIVER S-9, PHENOBARBITAL AND BETA-NAPHTHOFLAVONE, Method: PREINCUBATION): inactive; negative
mutagenic call (Test System: AMES SALMONELLA TYPHIMURIUM, Strain/Indicator: TA1535, Metabolic Activation: RAT, LIVER, S-9, AROCLOR 1254, Method: STANDARD PLATE): inactive; negative
mutagenic call (Test System: AMES SALMONELLA TYPHIMURIUM, Strain/Indicator: TA1535, Metabolic Activation: RAT, LIVER, S-9, PHENOBARBITAL AND BETA-NAPHTHOFLAVONE, Method: GAS EXPOSURE): inactive; negative
mutagenic call (Test System: AMES SALMONELLA TYPHIMURIUM, Strain/Indicator: TA1537, Metabolic Activation: HAMSTER, LIVER, S-9, AROCLOR 1254, Method: STANDARD PLATE): inactive; negative
mutagenic call (Test System: AMES SALMONELLA TYPHIMURIUM, Strain/Indicator: TA1537, Metabolic Activation: NONE, Method: GAS EXPOSURE): inactive; negative
mutagenic call (Test System: AMES SALMONELLA TYPHIMURIUM, Strain/Indicator: TA1537, Metabolic Activation: NONE, Method: PREINCUBATION): inactive; negative
mutagenic call (Test System: AMES SALMONELLA TYPHIMURIUM, Strain/Indicator: TA1537, Metabolic Activation: NONE, Method: STANDARD PLATE): inactive; negative
mutagenic call (Test System: AMES SALMONELLA TYPHIMURIUM, Strain/Indicator: TA1537, Metabolic Activation: RAT LIVER S-9, PHENOBARBITAL AND BETA-NAPHTHOFLAVONE, Method: PREINCUBATION): inactive; negative
mutagenic call (Test System: AMES SALMONELLA TYPHIMURIUM, Strain/Indicator: TA1537, Metabolic Activation: RAT, LIVER, S-9, AROCLOR 1254, Method: STANDARD PLATE): inactive; negative
mutagenic call (Test System: AMES SALMONELLA TYPHIMURIUM, Strain/Indicator: TA1537, Metabolic Activation: RAT, LIVER, S-9, PHENOBARBITAL AND BETA-NAPHTHOFLAVONE, Method: GAS EXPOSURE): inactive; negative
mutagenic call (Test System: AMES SALMONELLA TYPHIMURIUM, Strain/Indicator: TA1538, Metabolic Activation: HAMSTER, LIVER, S-9, AROCLOR 1254, Method: STANDARD PLATE): inactive; negative
mutagenic call (Test System: AMES SALMONELLA TYPHIMURIUM, Strain/Indicator: TA1538, Metabolic Activation: NONE, Method: PREINCUBATION): inactive; negative
mutagenic call (Test System: AMES SALMONELLA TYPHIMURIUM, Strain/Indicator: TA1538, Metabolic Activation: NONE, Method: STANDARD PLATE): inactive; negative
mutagenic call (Test System: AMES SALMONELLA TYPHIMURIUM, Strain/Indicator: TA1538, Metabolic Activation: RAT LIVER S-9, PHENOBARBITAL AND BETA-NAPHTHOFLAVONE, Method: PREINCUBATION): inactive; negative
mutagenic call (Test System: AMES SALMONELLA TYPHIMURIUM, Strain/Indicator: TA1538, Metabolic Activation: RAT, LIVER, S-9, AROCLOR 1254, Method: STANDARD PLATE): inactive; negative
mutagenic call (Test System: E. COLI, Strain/Indicator: WP2UVRA, Metabolic Activation: NONE, Method: GAS EXPOSURE): inactive; negative
mutagenic call (Test System: E. COLI, Strain/Indicator: WP2UVRA, Metabolic Activation: RAT, LIVER, S-9, PHENOBARBITAL AND BETA-NAPHTHOFLAVONE, Method: GAS EXPOSURE): inactive; negative
mutagenic call (Test System: E.COLI, Strain/Indicator: WP2UVRA, Metabolic Activation: NONE, Method: PREINCUBATION): inactive; negative
mutagenic call (Test System: E.COLI, Strain/Indicator: WP2UVRA, Metabolic Activation: RAT LIVER S-9, PHENOBARBITAL AND BETA-NAPHTHOFLAVONE, Method: PREINCUBATION): inactive; negative
mutagenic call (Test System: HUMAN SKIN FIBROBLASTS, Strain/Indicator: 6-THIOGUANINE, Metabolic Activation: NONE): active; positive
mutagenic call (Test System: MOUSE LYMPHOMA, Strain/Indicator: L5178Y (TK+/TK-), Metabolic Activation: RAT, LIVER, S-9, AROCLOR 1254, Method: SUSPENSION/PLATE): active; positive. reevaluation of results: inconclusive
